Data reported in patent US9278925B2, “Substituted 3-(biphenyl-3-yl)-4-hydroxy-8-methoxy-1-azaspiro[4.5]dec-3-en-2-one” (BAYER INTELLECTUAL PROPERTY GMBH, priority 2011, dated 2016).
Values joined by “and” are separate entries in the source; they are usually repeats but may differ in a detail not shown here. Equal entries are not always repeated. Where two headings read alike, the source gives them in different places.

Key:
human ACC1 [1] = target: human ACC1 (Homo sapiens, UniProt Q13085); experiment: Human ACC1 enzyme assay (ADP-Glo); assay type: biochemical; details: individual measurement (measurement no./preparation no. in table); read-out: ACC 1 IC50
Procedure: (§1) Typical concentrations were in the range of 1.75 μl.

human ACC1 [2] = experiment: Human ACC1 enzyme assay (ADP-Glo); assay type: biochemical; details: for Ratio IC50s ACC2/ACC1 (respective measurement): pairwise, same dilution series
Procedure: as §1

[3] = Membrane affinity logMA (MA-Transil); assay type: physicochemical; details: buffer pH 7.4
Procedure: Assays for Determining Membrane Affinity logMA and Protein Binding to Human Serum Albumin (HSA):
Determination of membrane affinity and protein binding to human serum albumin (HSA) was carried out via Transil technology (literature: A. Loidl-Stahlhofen, A. Eckert, T. Hartmann, M. Schöttner J Pharm Sci 90, 599-606 (2001)). Transil® (commercially available from Sovicell in Leipzig, Germany) are glass beads (diameter 10-12 μm) coated with a double-layer membrane of phosphatidylcholine (MA-Transil) or covalently attached human serum albumin (HSA-Transil).
To determine the logMA and the protein binding constant to HSA, the commercially available TRANSIL Intestinal Absorption & HSA Binding Combined Assay Kit was used. This is a 96-well microtitre plate (96 well-MTP) which is filled with Transil and can be used to determine MA-Transil and HSA-Transil binding of in each case eight active compounds. For each active compound, the Transil plate provides a row of 12 wells. Two wells serve as reference and are only filled with buffer pH 7.4. Five further wells contain MA-Transil in various increasing concentrations, the five remaining wells contain HSA-Transil in various increasing concentrations.
To determine binding of an active compound to Transil, the supernatant of the wells with Transil was quantified against the reference solution without Transil via HPLC-MS coupling (HPLC-MS=high performance liquid chromatography/mass spectrometry).
This is how the individual steps of the assay were carried out:
From the internal substance store, the active compounds were delivered in a 96-well MTP. This plate is referred to as mother plate. Each well contained 30 μl of a 10 mmol solution of active compound in DMSO (dimethyl sulphoxide). Two wells at the start (well A1) and at the end of the plate (well H12) were filled with 30 μl of a 10 mmol solution of warfarin in DMSO. Warfarin, whose membrane affinity and binding to HSA is known, serves to check whether the measurement is correct. The mother plate was used to prepare a daughter plate with a 1 to 4000 dilution with a mixture of buffer pH 7.4 and DMSO in a ratio of 1+1. The active compound concentration of each well was 2.5 μmol/liter, the volume of each well was 400 μl.
Using a Hamilton pipetting robot Microlab STAR, the 96 active compounds from the daughter plate were divided onto 12 Transil plates in total. From each well of the daughter plate, 12 times 20 μl were removed. The concentration of each well of the Transil plate was 0.25 μmol/liter, which corresponds to a dilution of 1 to 10. The DMSO content was 5%.
The filled Transil plates were each resuspended for two minutes, then allowed to stand at room temperature for at least two minutes and then centrifuged at 600 rotations per minute for five minutes. The pipetting robot was then used to remove 20 μl of supernatant from each well of the Transil plate and to transfer these to a separate microtitre plate. Here, the supernatants of in each case four Transil plates were pooled in a microtitre plate, so that at the end there were three pooled microtitre plates with in each case 80 μl of solution and an active compound concentration of 62.5 nM per well.
Prior to quantification of the active compounds by HPLC-MS, an optimization has to be carried out for each active compound where by way of a single injection daughter ion and optimum electrical voltages are determined. To this end, the pipetting robot prepared a dilution of the mother plate of 1 to 10 000 000 in an acetonitrile/water mixture in a ratio of 8+2 in a separate microtitre plate. This microtitre plate was measured by HPLC-MS using the software Discovery Quant Optimize from AB Sciex. The three pooled microtitre plates were measured by HPLC-MS using the software Discovery Quant Analyze from AB Sciex. […]

[4] = target: human serum albumin (HSA) (Homo sapiens (Human), UniProt P02768); experiment: Protein binding to human serum albumin (HSA-Transil); details: buffer pH 7.4
human serum albumin (HSA), sequence (P02768 25-609): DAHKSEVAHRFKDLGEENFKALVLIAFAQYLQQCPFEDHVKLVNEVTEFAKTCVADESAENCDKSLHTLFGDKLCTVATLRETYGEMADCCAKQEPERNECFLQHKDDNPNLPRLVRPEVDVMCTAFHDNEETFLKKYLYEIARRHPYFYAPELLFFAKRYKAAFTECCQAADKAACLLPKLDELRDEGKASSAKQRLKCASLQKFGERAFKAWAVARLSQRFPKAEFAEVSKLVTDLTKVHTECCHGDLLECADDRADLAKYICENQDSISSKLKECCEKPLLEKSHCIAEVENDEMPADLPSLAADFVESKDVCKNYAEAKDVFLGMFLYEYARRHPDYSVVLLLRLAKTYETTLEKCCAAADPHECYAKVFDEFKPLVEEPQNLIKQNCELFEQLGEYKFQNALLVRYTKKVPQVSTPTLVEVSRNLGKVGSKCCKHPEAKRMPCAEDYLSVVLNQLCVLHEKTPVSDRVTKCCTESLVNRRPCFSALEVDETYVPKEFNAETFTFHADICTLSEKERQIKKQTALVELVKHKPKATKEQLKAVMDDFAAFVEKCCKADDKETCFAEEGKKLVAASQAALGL
Procedure: Assays for Determining Membrane Affinity logMA and Protein Binding to Human Serum Albumin (HSA): Determination of membrane affinity and protein binding to human serum albumin (HSA) was carried out via Transil technology (literature: A. Loidl-Stahlhofen, A. Eckert, T. Hartmann, M. […] Pharm Sci 90, 599-606 (2001)). Transil® (commercially available from Sovicell in Leipzig, Germany) are glass beads (diameter 10-12 μm) coated with a double-layer membrane of phosphatidylcholine (MA-Transil) or covalently attached human serum albumin (HSA-Transil). To determine the logMA and the protein binding constant to HSA, the commercially available TRANSIL Intestinal Absorption & HSA Binding Combined Assay Kit was used. This is a 96-well microtitre plate (96 well-MTP) which is filled with Transil and can be used to determine MA-Transil and HSA-Transil binding of in each case eight active compounds. […] Two wells serve as reference and are only filled with buffer pH 7.4. Five further wells contain MA-Transil in various increasing concentrations, the five remaining wells contain HSA-Transil in various increasing concentrations. To determine binding of an active compound to Transil, the supernatant of the wells with Transil was quantified against the reference solution without Transil via HPLC-MS coupling (HPLC-MS=high performance liquid chromatography/mass spectrometry). This is how the individual steps of the assay were carried out: From the internal substance store, the active compounds were delivered in a 96-well MTP. This plate is referred to as mother plate. […] Warfarin, whose membrane affinity and binding to HSA is known, serves to check whether the measurement is correct. […] Using a Hamilton pipetting robot Microlab STAR, the 96 active compounds from the daughter plate were divided onto 12 Transil plates in total. From each well of the daughter plate, 12 times 20 μl were removed. The concentration of each well of the Transil plate was 0.25 μmol/liter, which corresponds to a dilution of 1 to 10. […] The filled Transil plates were each resuspended for two minutes, then allowed to stand at room temperature for at least two minutes and then centrifuged at 600 rotations per minute for five minutes. The pipetting robot was then used to remove 20 μl of supernatant from each well of the Transil plate and to transfer these to a separate microtitre plate. […] Prior to quantification of the active compounds by HPLC-MS, an optimization has to be carried out for each active compound where by way of a single injection daughter ion and optimum electrical voltages are determined. […] This microtitre plate was measured by HPLC-MS using the software Discovery Quant Optimize from AB Sciex. The three pooled microtitre plates were measured by HPLC-MS using the software Discovery Quant Analyze from AB Sciex. • Sciex Triple Quad 5500 mass spectrometer (from AB Sciex) • PAL Autosampler DLW Option Software: Analyst 1.4 (from AB Sciex) • Discovery Quant Optimize (from AB Sciex) • Discovery Quant Analyze (from AB Sciex) Optimization: […] Column: Poroshell 120 SB-C18 2.7 μm 3×30 mm Injection volume: 2 μl Flow rate: 1 ml/min: […] Evaluation of the HPLC peaks was carried out using Discovery Quant Analyze. The results (logMA and binding constant to HSA Kd) were calculated using an Excel workbook provided by Sovicell.

[5] = Plasma protein binding by equilibrium dialysis; assay type: in vitro ADME
Procedure: The binding of test substances to plasma proteins is determined by equilibrium dialysis by means of the Ht-dialysis apparatus (96-well) made of Teflon and a semipermeable membrane (regenerated cellulose, MWCO 12-14K). This separates 150 μl each of a plasma side and a buffer side (50 mM phosphate buffer). The test substance is added in 2 concentrations (usually 3 and 0.3 μM) to the plasma side and binds to plasma proteins. The unbound fraction of the test substance passes through the membrane and is distributed on either side until equilibrium is established (after approx. 6-8 h at 37° C.). The substance concentration on the buffer side and the plasma side is determined by LC-MS analysis. For this, both sides are brought by dilution with buffer or plasma to the same matrix (10% plasma) and then precipitated with methanol. The free (unbound) fraction (fu) is calculated from the quotient of the buffer and plasma concentration. Stability tests and recovery tests are run concurrently as controls. In addition, the substance in buffer is dialysed against buffer, to check the nonspecific binding to apparatus and membrane and establishment of equilibrium. Because during incubation the osmotic pressure of the plasma proteins leads to dilution of the plasma (volume shift), this possible error is determined by weighing blank plasma samples and is included in the calculation of fu. Establishment of equilibrium and plasma stability should have a value not lower than 80% and the recovery should be at least 30%. A free fraction of <1% is regarded as high, between 1 and 10% as moderate and >10% as low plasma protein binding.

[6] = reference substances with known distribution coefficients; cited from earlier work
[7] = human plasma, read-out: fu [%] (human)
[8] = mouse plasma, read-out: fu [%] (mouse)

With `Cc1ccc(-c2ccc(Cl)cc2)cc1C1=C(O)[C@]2(CC[C@H](C(F)(F)F)CC2)NC1=O` [V.1-b, (5s,8s)-3-(4′-Chloro-4-methylbiphenyl-3-yl)-4-hydroxy-8-(trifluoromethyl)-1-azaspiro[4.5]dec-3-en-2-one] the IC50 (human ACC1 [1]) was 109 nM and 111 nM, the “Selectivity ACC1 vs. ACC2 (mean of the individual measurements ± standard deviation)” value (human ACC1 [2]) was 9.8 ± 1.4 and the “Ratio IC50s ACC2/ACC1 (respective measurement)” value (human ACC1 [2]) was 11.2 and 8.4. For the same compound, the logMA [3] was 2.38, the Kd [4] was 3070 nM and the fraction unbound [5, 7] was 0.0007. The fraction unbound [5, 8] was 0.0241.

For `Cc1ccc(-c2ccc(Cl)c(F)c2)cc1C1=C(O)[C@]2(CC[C@H](C(F)(F)F)CC2)NC1=O` [V.2-b, (5s,8s)-3-(4′-Chloro-3′-fluoro-4-methylbiphenyl-3-yl)-4-hydroxy-8-(trifluoromethyl)-1-azaspiro[4.5]dec-3-en-2-one], the “Selectivity ACC1 vs. ACC2 (mean of the individual measurements ± standard deviation)” value (human ACC1 [2]) was 9.4 ± 0.8, the “Ratio IC50s ACC2/ACC1 (respective measurement)” value (human ACC1 [2]) was 8.6 and 10.3 and the logMA [3] was 2.55. It also gave a fraction unbound [5, 7] of 0.0005 and a fraction unbound [5, 8] of 0.019.

For `COC(=O)c1ccccc1` [methyl benzoate], the “log P” value [6] is listed as 2.1.

In the case of `Clc1ccc(C(c2ccc(Cl)cc2)C(Cl)(Cl)Cl)cc1` [DDT], the “log P” value [6] is given as 6.2.

In the case of `c1ccc(-c2cccc(-c3ccccc3)n2)cc1` [2,6-diphenylpyridine], the “log P” value [6] is given as 4.9.
